Like-named read-outs stand apart in the source and are kept apart here.

Series [1] has as its system HepG2 cells. The settings on record: human, 24 h.
Experimental: (§1) HepG2 cells floating in a Dulbecco's modified Eagle's medium (DMEM) containing 10% fetal bovine serum (FBS) were inoculated at a concentration of 3.5×10^4 cells/0.1 mL/well to a 96-well plate and cultured at 37° C. for approximately 24 hours in a 5% CO2 atmosphere. Then, the medium was replaced by DMEM containing iguratimod and methotrexate and containing 0.5% FBS, and the cells were further cultured therein for 24 hours. In this context, iguratimod was dissolved in a 1.12-fold molar quantity of 0.1 mol/L sodium hydroxide solution, diluted with distilled water, and then added to the culture solution. Methotrexate was dissolved in dimethyl sulfoxide (DMSO) and added to the culture solution. Test substance-free DMEM containing 0.25% DMSO and 0.5% FBS was used in a control group.
(§2) After the completion of culture, each culture supernatant was separated, and the activity of lactate dehydrogenase (LDH) released outside the cells was determined using Cytotoxicity Detection Kit (LDH) (Roche Applied Science). In order to determine LDH activity in the whole cells, 0.1 mL of DMEM containing 2% Triton X-100 and 0.5% FBS was then added to each well after the culture supernatant separation to prepare a cell lysate. The LDH activity was determined in the same way as above.
(§3) The rate of LDH release (%) was calculated according to the formula shown below and indicated by the average value of each group. Its ratio with respect to the control group was also determined. Rate of LDH release (%)=Activity in the culture supernatant/(Activity in the culture supernatant+Activity in the cell lysate)×100
For series [2], the system named is adjuvant arthritis. As to the kind of experiment: Adjuvant-induced arthritis in rats, paw swelling of both hind legs, therapeutic dosing (Test Example 2). The format is in vivo, Lewis male rat. The following applies: oral once a day for 7 days from day 18, 25th day; for Swelling rate: average of both hind legs; for Inhibition rate: vs control swelling rate. As to the method: A suspension of dead Mycobacterium tuberculosis in liquid paraffin (0.6 mg/0.1 mL) was intradermally injected to the base of tail of each Lewis male rat to induce adjuvant arthritis. On the 18th day after the induction of arthritis, the paw volumes of both hind legs were measured. The rats were grouped so that the paw volumes of both hind legs averaged out per group. The test substances were separately suspended or dissolved in 0.5% aqueous methylcellulose solutions to prepare dosing solutions, which were orally administered once a day for 7 days from the grouping date. In the case of combined administration, both test substances were simultaneously administered through an oral route.
The dose of iguratimod was set to 1 mg/kg, while the dose of prednisolone was set to 5 mg/kg. Alternatively, 1 mg/kg iguratimod and 5 mg/kg prednisolone were orally administered in combination.
1 mL of 0.5% aqueous methylcellulose solution per 100 g of body weight was orally administered to a control group that received no test substance after the grouping.
On the day after the final administration (on the 25th day after the induction of arthritis), the paw volumes of both hind legs were measured for each group. Subsequently, the rats were killed by blood removal. Then, their thymus glands, spleens, and adrenal glands were extirpated, and the weights were measured to calculate the ratio of each organ weight to 100 g body weight.

For series [3], the system named is adjuvant arthritis. In words: Adjuvant-induced arthritis in rats, paw swelling of left hind leg (Test Example 1). The format is in vivo, Lewis male rat. The following applies: oral once a day for 21 days; for Swelling rate: left hind leg, 21st day after arthritis induction; for Inhibition rate: vs control swelling rate, 21st day. The procedure: A suspension of dead Mycobacterium tuberculosis in liquid paraffin (0.6 mg/0.1 mL) was intradermally injected in the plantar region of left hind paw of each Lewis male rat to induce adjuvant arthritis. The paw volumes of both hind legs were measured using a plethysmometer on a daily basis from before to after the induction of arthritis. The test substances were separately suspended or dissolved in 0.5% aqueous methylcellulose solutions to prepare dosing solutions, which were orally administered once a day for 21 days from immediately after the adjuvant injection. In the case of combined administration, both test substances were simultaneously administered.
The dose of iguratimod was set to 3 mg/kg, while the dose of methotrexate was set to 0.1 mg/kg. Alternatively, 3 mg/kg iguratimod and 0.1 mg/kg methotrexate were administered in combination.
1 mL of 0.5% aqueous methylcellulose solution per 100 g of body weight was orally administered to an untreated normal group and a control group that received no test substance after the induction of arthritis.
On the day after the final administration (on the 21st day after the induction of arthritis), the paw volume of the left hind leg was measured for each group. Subsequently, peripheral blood was collected therefrom, and the reticulocyte count was measured.

The test system of series [4] is HepG2 cells. As to the kind of experiment: Cellular damage of HepG2 cells, LDH release (Test Example 3). The settings on record: iguratimod 0, HepG2, 24 hours; for Rate of LDH release: control 14.2.
Experimental: as §1, §2, §3

As to `CS(=O)(=O)Nc1cc2occ(NC=O)c(=O)c2cc1Oc1ccccc1` [Iguratimod, N-[7-[(methanesulfonyl)amino]-4-oxo-6-phenoxy-4H-1-benzopyran-3-yl]formamide], in the series on HepG2 cells [1] (3 μg/mL), the “Rate of LDH release” value is recorded as 15.9% and the “Rate of LDH release, ratio to control group” value (from here on “Rate of LDH release, ratio”) was 112%. Besides, in the series on HepG2 cells [1] (30 μg/mL), the “Rate of LDH release” value came to 17.0% and the “Rate of LDH release, ratio” value was found to be 120%. In the series with adjuvant arthritis [2] (iguratimod 1 mg/kg), the Swelling rate is reported as 76% and the Inhibition rate was determined as 28%. In the series with adjuvant arthritis [3] (iguratimod 3 mg/kg), the Swelling rate is reported as 93% and the Inhibition rate stood at 40%.
Regarding `C[C@]12C=CC(=O)C=C1CC[C@@H]1[C@@H]2[C@@H](O)C[C@@]2(C)[C@H]1CC[C@]2(O)C(=O)CO` [Prednisolone, prednisolone], in the series on adjuvant arthritis [2] (prednisolone 5 mg/kg), the Swelling rate is reported as 66% and the Inhibition rate is 37%.
In the case of `CN(Cc1cnc2nc(N)nc(N)c2n1)c1ccc(C(=O)N[C@@H](CCC(=O)O)C(=O)O)cc1` [Methotrexate, methotrexate], in the series with HepG2 cells [4] (methotrexate 1 μg/mL), the “Rate of LDH release, ratio” value is listed as 172% and the “Rate of LDH release” value turned out to be 24.4%. Moreover, in the series on HepG2 cells [4] (methotrexate 10 μg/mL), the “Rate of LDH release, ratio” value is 189% and the “Rate of LDH release” value worked out at 26.8%. In addition, in the series with adjuvant arthritis [3] (methotrexate 0.1 mg/kg), the Swelling rate is 114% and the Inhibition rate stood at 26%.

For the origin of these results see US9421186B2, “Method for improving therapy for autoimmune diseases such as rheumatoid arthritis” (priority 2012, dated 2016).
